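Five compound concentrations were applied to cells in 96-well plates for 48 hours; endpoints were derived by simple linear interpolation of the resulting dose-response curve. Abbreviation: GI50, concentration required for 50% inhibition of growth.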 The source made the active and inactive calls. Cut-off read from the data, not from the text of the source: active = GI50 up to about 1.1 µM and inactive = higher.

Test systems include A498; NCI/ADR-RES; MCF7; NCI-H226; CAKI-1; NCI-H23; SN12C; SK-MEL-28; KM12; HCT-116; UACC-62; SNB-19; SR; HL-60; OVCAR-4; SF-268; LOX IMVI; Malme-3M; HOP-92; A549.
Common to all, as to assay: NCI anticancer screen, dose series, 48 h

As for `CC(=O)NC1COC(COC(=O)CCCCCCCCCCNC(=O)c2ccc([N+](=O)[O-])c3c(=O)c4ccccc4[nH]c23)C(O)C1OC(C)C(=O)NC(C(=O)NC(CCC(N)=O)C(=O)OCc1ccccc1)C(C)C` (stereo not given), the GI50 with A498 is 28.8 µM (inactive); in the assay on NCI/ADR-RES, 32.9 µM (inactive); in the assay on MCF7 it was 6.61 µM (inactive); with NCI-H226 it was 44.9 µM (inactive); in the assay on CAKI-1, 15.2 µM (inactive); with NCI-H23 it was 11.4 µM (inactive). Also, the GI50 in the assay on SN12C is 32.6 µM (inactive); in the assay on SK-MEL-28, 11.9 µM (inactive); in the assay on KM12, 4.85 µM (inactive); in the assay with HCT-116, 12.2 µM (inactive); with UACC-62 it was 25.2 µM (inactive); in the assay on SNB-19, 6.03 µM (inactive). In addition, the GI50 was 7.08 µM (inactive) with SR; 0.445 µM (active) in the assay on HL-60; 8.26 µM (inactive) in the assay with OVCAR-4; 7.36 µM (inactive) in the assay with SF-268; 11.5 µM (inactive) with LOX IMVI; 38.6 µM (inactive) in the assay with Malme-3M. For the same compound, the figures for the GI50 in the assay with HOP-92 and with A549 were 8.05 µM (inactive) and 25 µM (inactive), respectively.

For `c1ccc2c3ccn4ccc5c6ccccc6[nH]c5c4c-3nc2c1`, the GI50 in the assay on A498 was 1.63 µM (inactive); in the assay on NCI/ADR-RES, 1.72 µM (inactive); in the assay on MCF7 it was 0.331 µM (active); in the assay with NCI-H226, 1.67 µM (inactive); in the assay with CAKI-1, 1.42 µM (inactive); in the assay on NCI-H23, 1.69 µM (inactive). For the same compound, the GI50 with SN12C is 0.735 µM (active); in the assay on SK-MEL-28, 1.7 µM (inactive); in the assay on KM12 it was 0.908 µM (active); in the assay on HCT-116, 0.306 µM (active); with UACC-62 it was 1.77 µM (inactive); in the assay on SNB-19, 1.49 µM (inactive). The GI50 was 0.0594 µM (active) with SR; 0.935 µM (active) in the assay on HL-60; 0.394 µM (active) in the assay with OVCAR-4; 1.24 µM (inactive) with SF-268; 0.202 µM (active) in the assay with LOX IMVI; 1.65 µM (inactive) with Malme-3M. The GI50 is 1.43 µM (inactive) in the assay with HOP-92 and 0.745 µM (active) with A549.

Turning to `C/C(=N\Nc1ncnc2ccccc12)c1ccccn1`, the GI50 was 0.183 µM (active) in the assay on A498; < 0.0168 µM (active) in the assay with NCI/ADR-RES; 0.0138 µM (active) with MCF7; 0.0276 µM (active) with NCI-H226; < 0.01 µM (active) in the assay with CAKI-1; < 0.0244 µM (active) with NCI-H23. In addition, the GI50 in the assay on SN12C was 0.026 µM (active); in the assay on SK-MEL-28, 0.369 µM (active); in the assay on KM12, 0.0561 µM (active); in the assay on HCT-116, < 0.011 µM (active); in the assay with UACC-62, 0.0948 µM (active); in the assay on SNB-19, 0.802 µM (active). For the same compound, the GI50 was 0.0317 µM (active) with SR; < 0.01 µM (active) in the assay on HL-60; 10.7 µM (inactive) in the assay with OVCAR-4; < 0.0177 µM (active) in the assay with SF-268; 0.0194 µM (active) in the assay with LOX IMVI; < 0.0315 µM (active) in the assay with Malme-3M. The GI50 in the assay on HOP-92 is 0.25 µM (active); in the assay on A549 it was 0.0316 µM (active).

As for `Cc1c(-c2ccccc2)c(C#N)c2nnn(C)c(=O)n12`, the GI50 is 91.6 µM (inactive) in the assay with A498; > 100 µM (inactive) in the assay with NCI/ADR-RES; > 100 µM (inactive) in the assay with MCF7; > 100 µM (inactive) in the assay with NCI-H226; > 100 µM (inactive) in the assay on CAKI-1; > 100 µM (inactive) in the assay on NCI-H23. Further, the GI50 in the assay on SN12C, with SK-MEL-28, in the assay with KM12, with HCT-116, in the assay on UACC-62 and with SNB-19 was > 100 µM (inactive) each time. Besides, the GI50 is 65.6 µM (inactive) in the assay with SR; > 100 µM (inactive) in the assay with HL-60; > 100 µM (inactive) with OVCAR-4; > 100 µM (inactive) in the assay on SF-268; > 100 µM (inactive) in the assay on LOX IMVI; > 100 µM (inactive) in the assay with Malme-3M. The GI50 in the assay with HOP-92 and in the assay with A549 was > 100 µM (inactive) in each case.

For the compound `Oc1c(Br)c(-c2ccccc2)nc2ccccc12`, the GI50 in the assay on A498 is 5.35 µM (inactive); with NCI/ADR-RES it was 35.1 µM (inactive); in the assay on MCF7, 59.2 µM (inactive); in the assay with NCI-H226 it was 8.47 µM (inactive); with CAKI-1, 6.32 µM (inactive); in the assay with NCI-H23, 22.1 µM (inactive). Further, the GI50 was 6.67 µM (inactive) with SN12C; 89.1 µM (inactive) in the assay on SK-MEL-28; 1.18 µM (inactive) in the assay with KM12; 53.3 µM (inactive) in the assay on HCT-116; 21.9 µM (inactive) with UACC-62; > 10 µM (inactive) in the assay on SNB-19. Besides, the GI50 in the assay with SR was 29.8 µM (inactive); in the assay on HL-60, 12.2 µM (inactive); in the assay on OVCAR-4, 39.6 µM (inactive); with SF-268 it was > 10 µM (inactive); in the assay on LOX IMVI it was 64 µM (inactive); with Malme-3M it was 53.2 µM (inactive). Also, the GI50 is 8 µM (inactive) in the assay on HOP-92 and 1.98 µM (inactive) in the assay on A549.

In the case of `O=C(O)CCCCCNC(=O)CCC(CN(CC(=O)OCc1ccccc1)CC(=O)OCc1ccccc1)N(CC(=O)OCc1ccccc1)CC(=O)OCc1ccccc1` (stereo not given), the GI50 was 17.9 µM (inactive) in the assay on A498; 20.3 µM (inactive) in the assay with NCI/ADR-RES; 19.4 µM (inactive) in the assay with MCF7; 22.9 µM (inactive) with NCI-H226; 18.3 µM (inactive) in the assay on CAKI-1; 18.4 µM (inactive) with NCI-H23. Moreover, the GI50 is 18.4 µM (inactive) in the assay on SN12C; 19 µM (inactive) in the assay on SK-MEL-28; 17.6 µM (inactive) in the assay with KM12; 17.1 µM (inactive) with HCT-116; 16.7 µM (inactive) in the assay on UACC-62; 17.9 µM (inactive) in the assay on SNB-19. Also, the GI50 was 20.9 µM (inactive) in the assay on SR; 15 µM (inactive) in the assay on HL-60; 16.9 µM (inactive) with OVCAR-4; 18.7 µM (inactive) with SF-268; 19.2 µM (inactive) with LOX IMVI; 19.2 µM (inactive) in the assay with Malme-3M. Also, the GI50 is 13.3 µM (inactive) with HOP-92 and 17.4 µM (inactive) in the assay with A549.

With `N#Cc1ccccc1NC(=O)C(O)C(O)C(O)C(O)C=O` (stereo not given), the GI50 with A498, in the assay with NCI/ADR-RES, in the assay on MCF7, with NCI-H226, in the assay on CAKI-1 and in the assay with NCI-H23 was > 100 µM (inactive) in each case. In addition, the GI50 in the assay on SN12C, in the assay with SK-MEL-28, in the assay with KM12, in the assay on HCT-116, in the assay on UACC-62 and in the assay on SNB-19 was > 100 µM (inactive) throughout. Besides, the GI50 in the assay with SR, in the assay on HL-60, with OVCAR-4, in the assay on SF-268, with LOX IMVI and in the assay on Malme-3M was > 100 µM (inactive) each time. Besides, the GI50 in the assay on HOP-92 and in the assay with A549 was > 100 µM (inactive) throughout.

In the case of `Cc1ccc([N+](=O)[O-])cc1S(=O)(=O)Nc1ccc(C2=NOC(c3ccco3)C2)cc1` (stereo not given), the GI50 was 15.1 µM (inactive) in the assay with A498; 14.5 µM (inactive) in the assay on NCI/ADR-RES; 11.6 µM (inactive) in the assay with MCF7; 17 µM (inactive) in the assay on NCI-H226; 22.8 µM (inactive) in the assay with CAKI-1; 16.5 µM (inactive) with NCI-H23. Further, the GI50 in the assay on SN12C was 21.9 µM (inactive); in the assay on SK-MEL-28, 18.2 µM (inactive); in the assay with KM12, 11.8 µM (inactive); in the assay with HCT-116, 16.4 µM (inactive); in the assay with UACC-62, 11.7 µM (inactive); in the assay on SNB-19, 18.7 µM (inactive). In addition, the GI50 with SR was 3.33 µM (inactive); in the assay on HL-60, 21.3 µM (inactive); in the assay with OVCAR-4 it was 14.9 µM (inactive); with SF-268 it was 26.1 µM (inactive); with LOX IMVI, 17.3 µM (inactive); in the assay on Malme-3M, 16.6 µM (inactive). In addition, the GI50 is 29.2 µM (inactive) in the assay with HOP-92 and 21.9 µM (inactive) with A549.

Take `CCCCCCCCCCCCCCCCC1=CC(=O)C=C(OC)C1=O`: the GI50 in the assay on A498 is 48.5 µM (inactive); in the assay on NCI/ADR-RES, 95.5 µM (inactive); in the assay with MCF7, > 100 µM (inactive); in the assay on NCI-H226, > 100 µM (inactive); in the assay on CAKI-1, > 100 µM (inactive); in the assay with NCI-H23, 62.2 µM (inactive). Also, the GI50 was 44 µM (inactive) in the assay with SN12C; > 100 µM (inactive) in the assay on SK-MEL-28; 69.2 µM (inactive) in the assay with KM12; 56 µM (inactive) in the assay with HCT-116; 34.7 µM (inactive) in the assay with UACC-62; 56.4 µM (inactive) in the assay with SNB-19. The GI50 was 34.3 µM (inactive) with SR; > 100 µM (inactive) with HL-60; > 100 µM (inactive) in the assay with OVCAR-4; > 100 µM (inactive) in the assay with SF-268; 65.3 µM (inactive) in the assay on LOX IMVI; > 100 µM (inactive) in the assay on Malme-3M. Besides, the GI50 is 56.8 µM (inactive) with HOP-92 and 89.5 µM (inactive) with A549.

Consider `COC1/C=C/C(C)C(C(C)C(OC)C(C)CCC(=O)C(C)C(C/C=C/N(C)C=O)OC)OC(=O)/C=C/C=C(\C)CC(OC)C(OC)C2=CC(=O)O[C@@H](C(C)C(OC)CC(OC)/C=C/C(C)C(O)C1)[C@H]2O` (stereo not given in full), for which the GI50 in the assay on A498 was 0.0723 µM (active); in the assay on NCI/ADR-RES, 0.226 µM (active); in the assay on MCF7, 0.208 µM (active); in the assay on NCI-H226, 0.06 µM (active); with CAKI-1 it was 0.0508 µM (active); with NCI-H23 it was 0.145 µM (active). Moreover, the GI50 with SN12C was 0.126 µM (active); in the assay with SK-MEL-28, 0.192 µM (active); in the assay on KM12, 0.164 µM (active); with HCT-116, < 0.0222 µM (active); with UACC-62, 0.137 µM (active); with SNB-19, 0.171 µM (active). The GI50 in the assay with SR is 0.0809 µM (active); in the assay with HL-60, 0.0964 µM (active); in the assay on OVCAR-4 it was 0.121 µM (active); in the assay on SF-268, 0.129 µM (active); with LOX IMVI, 0.0145 µM (active); with Malme-3M, 0.148 µM (active). Moreover, the GI50 in the assay on HOP-92 was 0.0284 µM (active); with A549 it was 0.15 µM (active).

(Values after ChEMBL document CHEMBL1201862, “PubChem BioAssay data set” (2004).)
